Reference: ChEMBL document CHEMBL2413039, “Novel N-hydroxyfurylacrylamide-based histone deacetylase (HDAC) inhibitors with branched CAP group (Part 2)” (Bioorg Med Chem, 2013)
≈ marks a conversion by molar mass, not a printed value.

Tests used:
[1] = Intrinsic aqueous solubility of the compound at pH 7.4 by Avdeef-Tsinman potentiometric titration method; format: physicochemical; details: read-out: Intrinsic_solubility
[2] = Partition coefficient, log D of the compound at pH 7.4 by Avdeef-Tsinman potentiometric titration method; format: physicochemical; details: octanol/water
HepG2 = assay: cells; format: functional, cell-based; details: Homo sapiens, HepG2, 48 h
A549 = assay: cells; format: functional, cell-based; details: Homo sapiens, A549, 48 h
HCT-116 = assay: cells; format: functional, cell-based; details: Homo sapiens, HCT-116, 48 h
PC-3 = assay: cells; format: functional, cell-based; details: Homo sapiens, PC-3, 48 h
Histone deacetylase = format: protein assay, Homo sapiens; details: hela
Homo sapiens [3] = species: Homo sapiens; assay: Selectivity ratio of IC50 for human recombinant HDAC4 to human recombinant HDAC6
Homo sapiens [4] = species: Homo sapiens; assay: Selectivity ratio of IC50 for human recombinant HDAC1 to human recombinant HDAC6
Histone deacetylase 4 = Histone deacetylase 4 (Homo sapiens, UniProt P56524); assay: Inhibition of human recombinant HDAC4 using p53 residues 379-382 (RHKKAc) as substrate
Histone deacetylase 1 = Histone deacetylase 1 (Homo sapiens, UniProt Q13547); assay: Inhibition of human recombinant HDAC1 using p53 residues 379-382 (RHKKAc) as substrate
[5] = molecular target: T1, Protein deacetylase HDAC6 (Homo sapiens, UniProt Q9UBN7)
T1 sequence (Q9UBN7 whole entry): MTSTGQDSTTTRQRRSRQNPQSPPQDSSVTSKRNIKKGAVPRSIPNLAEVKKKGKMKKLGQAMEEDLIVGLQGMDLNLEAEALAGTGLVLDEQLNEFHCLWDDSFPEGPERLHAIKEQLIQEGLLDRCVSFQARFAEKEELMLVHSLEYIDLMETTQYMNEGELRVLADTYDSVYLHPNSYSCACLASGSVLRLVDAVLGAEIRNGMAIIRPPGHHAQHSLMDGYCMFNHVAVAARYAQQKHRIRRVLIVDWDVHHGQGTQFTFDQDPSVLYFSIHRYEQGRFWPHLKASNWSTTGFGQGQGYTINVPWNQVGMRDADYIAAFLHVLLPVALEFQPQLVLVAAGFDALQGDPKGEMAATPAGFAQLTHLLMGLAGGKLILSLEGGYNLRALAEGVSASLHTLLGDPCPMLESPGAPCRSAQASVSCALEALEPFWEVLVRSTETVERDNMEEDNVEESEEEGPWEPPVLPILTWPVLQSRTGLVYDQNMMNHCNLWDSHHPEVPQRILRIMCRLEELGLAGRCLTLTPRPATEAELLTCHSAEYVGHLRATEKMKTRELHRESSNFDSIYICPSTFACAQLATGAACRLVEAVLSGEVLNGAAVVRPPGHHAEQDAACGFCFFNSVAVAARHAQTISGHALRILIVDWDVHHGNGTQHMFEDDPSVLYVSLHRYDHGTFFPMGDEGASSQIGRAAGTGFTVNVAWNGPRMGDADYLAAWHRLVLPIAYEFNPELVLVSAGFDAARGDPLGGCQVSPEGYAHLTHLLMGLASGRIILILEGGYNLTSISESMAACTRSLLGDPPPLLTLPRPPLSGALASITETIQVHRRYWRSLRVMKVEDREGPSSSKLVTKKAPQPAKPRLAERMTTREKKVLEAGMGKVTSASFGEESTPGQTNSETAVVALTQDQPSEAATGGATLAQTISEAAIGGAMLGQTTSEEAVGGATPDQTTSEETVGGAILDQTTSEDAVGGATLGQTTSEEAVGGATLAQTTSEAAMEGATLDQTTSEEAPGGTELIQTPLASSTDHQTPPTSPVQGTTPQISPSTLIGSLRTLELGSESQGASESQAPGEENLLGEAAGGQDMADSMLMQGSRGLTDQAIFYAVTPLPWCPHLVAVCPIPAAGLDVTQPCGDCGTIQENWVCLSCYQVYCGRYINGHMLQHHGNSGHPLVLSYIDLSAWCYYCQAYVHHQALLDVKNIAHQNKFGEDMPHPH

Histone deacetylase 1, sequence (Q13547 whole entry, the tested form may be a part): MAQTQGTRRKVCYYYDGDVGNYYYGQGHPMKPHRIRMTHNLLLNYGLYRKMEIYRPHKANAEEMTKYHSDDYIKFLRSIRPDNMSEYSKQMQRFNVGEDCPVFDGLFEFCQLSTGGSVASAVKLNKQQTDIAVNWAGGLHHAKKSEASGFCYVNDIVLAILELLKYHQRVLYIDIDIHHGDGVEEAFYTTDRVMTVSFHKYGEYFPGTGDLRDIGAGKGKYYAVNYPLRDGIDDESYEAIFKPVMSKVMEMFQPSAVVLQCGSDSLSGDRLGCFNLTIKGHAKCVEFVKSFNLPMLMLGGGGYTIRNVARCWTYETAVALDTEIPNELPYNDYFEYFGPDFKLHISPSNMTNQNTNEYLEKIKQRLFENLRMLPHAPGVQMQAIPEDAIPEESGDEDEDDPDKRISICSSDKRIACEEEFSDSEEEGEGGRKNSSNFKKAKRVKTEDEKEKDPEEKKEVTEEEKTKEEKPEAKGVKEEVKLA
Histone deacetylase 4, sequence (P56524 whole entry, the tested form may be a part): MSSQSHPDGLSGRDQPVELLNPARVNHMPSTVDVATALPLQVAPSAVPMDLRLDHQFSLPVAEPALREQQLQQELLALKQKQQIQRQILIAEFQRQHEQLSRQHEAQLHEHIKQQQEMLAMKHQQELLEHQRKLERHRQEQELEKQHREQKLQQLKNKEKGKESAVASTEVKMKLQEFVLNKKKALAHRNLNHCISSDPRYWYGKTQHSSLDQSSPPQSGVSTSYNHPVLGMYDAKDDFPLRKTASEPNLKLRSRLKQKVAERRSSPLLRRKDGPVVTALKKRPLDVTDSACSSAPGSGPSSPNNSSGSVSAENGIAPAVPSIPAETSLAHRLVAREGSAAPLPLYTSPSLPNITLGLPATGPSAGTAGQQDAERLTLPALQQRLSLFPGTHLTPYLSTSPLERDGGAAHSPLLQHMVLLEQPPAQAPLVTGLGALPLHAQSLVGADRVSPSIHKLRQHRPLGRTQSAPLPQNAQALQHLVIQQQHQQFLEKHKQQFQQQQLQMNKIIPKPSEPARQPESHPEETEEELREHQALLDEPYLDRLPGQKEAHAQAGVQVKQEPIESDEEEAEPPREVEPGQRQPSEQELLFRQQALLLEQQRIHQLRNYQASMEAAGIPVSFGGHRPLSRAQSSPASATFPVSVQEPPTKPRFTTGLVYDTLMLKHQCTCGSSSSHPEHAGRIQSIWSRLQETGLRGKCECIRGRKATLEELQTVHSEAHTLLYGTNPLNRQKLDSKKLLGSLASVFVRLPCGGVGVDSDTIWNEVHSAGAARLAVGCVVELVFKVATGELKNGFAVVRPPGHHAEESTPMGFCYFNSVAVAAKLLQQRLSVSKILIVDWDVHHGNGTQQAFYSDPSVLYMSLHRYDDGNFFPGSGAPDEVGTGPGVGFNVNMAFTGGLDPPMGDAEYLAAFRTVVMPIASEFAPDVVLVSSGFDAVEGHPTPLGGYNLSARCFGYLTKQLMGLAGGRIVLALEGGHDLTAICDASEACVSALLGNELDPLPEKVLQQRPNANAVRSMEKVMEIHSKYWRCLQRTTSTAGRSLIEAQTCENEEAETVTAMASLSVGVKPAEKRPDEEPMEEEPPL

| Structure (SMILES) | solubility [1] | logD [2] | EC50 (HepG2) | EC50 (A549) | EC50 (HCT-116) | EC50 (PC-3) | IC50 (Histone deacetylase) | Ratio IC50 (Homo sapiens [3]) | Ratio IC50 (Homo sapiens [4]) | IC50 (Histone deacetylase 4) | IC50 (Histone deacetylase 1) | IC50 [5] |
| --- | --- | --- | --- | --- | --- | --- | --- | --- | --- | --- | --- | --- |
| CCCCCCCCN(Cc1ccccc1)Cc1ccc(/C=C/C(=O)NO)o1 | 1900 µM (≈ 731 µg/mL) | 5.28 | 3.96 µM | 6.59 µM | 0.47 µM | 42.3 µM | 2.55 µM | – | – | – | – | – |
| O=C(/C=C/c1ccc(CN(CCO)Cc2ccccc2)o1)NO | 4000 µM (≈ 1270 µg/mL) | 1.62 | 128 µM | 97.2 µM | 12.1 µM | > 138 µM | 0.17 µM | 26.3 | 29.7 | 11.3 µM | 12.7 µM | 0.43 µM |
| CCN(Cc1ccccc1)Cc1ccc(/C=C/C(=O)NO)o1 | 3000 µM (≈ 901 µg/mL) | 1.95 | > 167 µM | 38.4 µM | 6.37 µM | 104 µM | 0.13 µM | 42.3 | 21.4 | 10.7 µM | 5.44 µM | 0.25 µM |
| CCCN(Cc1ccccc1)Cc1ccc(/C=C/C(=O)NO)o1 | 2800 µM (≈ 880 µg/mL) | 2.54 | 16.7 µM | 23.2 µM | 24.9 µM | 25 µM | 0.17 µM | 60 | 28.1 | 10.6 µM | 4.95 µM | 0.18 µM |
| O=C(/C=C/c1ccc(CN(CCO)Cc2ccc(-c3ccccc3)cc2)o1)NO | 3110 µM (≈ 1220 µg/mL) | 1.8 | 22.6 µM | 8.36 µM | 4.02 µM | 15.9 µM | 0.089 µM | – | – | – | – | – |
| CCN(CCc1ccc2c(c1)OCO2)Cc1ccc(/C=C/C(=O)NO)o1 | – | – | 81.7 µM | 84.7 µM | 66 µM | 66.5 µM | 2.31 µM | 41.9 | 16.6 | 20 µM | 7.88 µM | 0.48 µM |
| CCCCN(Cc1ccccc1)Cc1ccc(/C=C/C(=O)NO)o1 | 2300 µM (≈ 755 µg/mL) | 2.97 | 24.3 µM | 14.5 µM | 18.3 µM | 20.7 µM | 0.54 µM | 30.9 | 20 | 7.26 µM | 4.69 µM | 0.23 µM |
